Experimental data published in patent US6525059B1, “Substituted pyrazoles as p38 kinase inhibitors” (G. D. Searle & Company, priority 1998, dated 2003).
Where a name gives a salt, the structure may show the parent alone. Read-outs that look alike come from different tables or passages of the source.

How the values were obtained:
TNF-α [1] = experiment: Rat assay: LPS-challenged rats, serum TNF-α by ELISA; format: in vivo; conditions: for inhibition in vivo at 5 mg/kg: read-out: Rat LPS Model % Inhibition @ dose @ predose time
Procedure: The efficacy of the novel compounds in blocking the production of TNF also was evaluated using a model based on rats challenged with LPS. Male Harlen Lewis rats [Sprague Dawley Co.] were used in this model. Each rat weighed approximately 300 g and was fasted overnight prior to testing. Compounds administration was typically by oral gavage (although intraperitoneal, subcutaneous and intravenous administration were also used in a few instances) 1 to 24 hours prior to the LPS challenge. Rats were administered 30 μg/kg LPS [salmonella typhosa, Sigma Co.] intravenously via the tail vein. Blood was collected via heart puncture 1 hour after the LPS challenge. Serum samples were stored at −20° C. until quantitative analysis of TNF-α by Enzyme Linked-Immuno-Sorbent Assay (“ELISA”) [Biosource]. Additional details of the assay are set forth in Perretti, M., et al., Br. J. Pharmacol. (1993), 110, 868-874, which is incorporated by reference in this application.
In vivo assessment of the ability of the compounds to inhibit LPS-stimulated TNF release in the rat is shown in the column identified as:
wherein in the dose is milligram per kilogram (mpk) administered by oral gavage and the predose time indicates the number of hours before LPS challenge when the compound is administered.

human p38 kinase alpha = target: T1, human p38 kinase alpha (Homo sapiens, UniProt Q16539); experiment: p38 kinase in vitro assay, phosphorylation of biotinylated PHAS-I with gamma 32P-ATP; format: biochemical; conditions: read-out: P38 alpha kinase IC50
T1 construct: The coding region of the human p38a cDNA was obtained by PCR-amplification from RNA isolated from the human monocyte cell line THP.1; GST (N); made in house; host or cells: E. coli DH10B
T1 sequence (Q16539 whole entry): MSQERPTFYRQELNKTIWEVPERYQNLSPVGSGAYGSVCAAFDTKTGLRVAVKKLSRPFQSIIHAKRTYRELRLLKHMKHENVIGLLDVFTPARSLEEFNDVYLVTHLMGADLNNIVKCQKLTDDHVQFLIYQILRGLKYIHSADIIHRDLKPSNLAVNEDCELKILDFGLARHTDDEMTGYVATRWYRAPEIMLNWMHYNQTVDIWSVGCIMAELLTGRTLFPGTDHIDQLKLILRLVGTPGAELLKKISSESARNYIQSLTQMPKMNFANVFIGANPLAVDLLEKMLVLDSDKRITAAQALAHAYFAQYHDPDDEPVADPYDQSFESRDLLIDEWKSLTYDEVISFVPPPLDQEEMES
Outline: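 MKK6-activated human p38α phosphorylates biotinylated PHAS-I with γ-32P-ATP in 25 mM HEPES pH 7.5, 10 mM Mg acetate, 50 μM unlabeled ATP, 1% DMSO, 30 °C for 1 h or overnight. Compounds at 100–0.001 μM (10-fold steps, triplicate); substrate captured on streptavidin filter plates and counted by scintillation.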

TNF-α [2] = experiment: LPS stimulation of TNF production by U937 cells; format: cell-based, human; conditions: for IC50: LPS-stimulated human U937 cells, read-out: U937 Cell IC50; for inhibition at 1 µM: U-937, @ 1.0 uM, read-out: U937 Cell % inhib @ conc.; for U937 Cell % inhib @ conc.: @ 1.0 uM
Outline: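 PMA-differentiated human U937 cells (20 ng/ml PMA, 24 h, then 24-48 h rest) at 2 million cells/ml, 0.1% DMSO final, stimulated with E. coli LPS (100 ng/ml final) for 4 h at 37° C. TNF-α in medium measured by ELISA; IC50 in μM.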

[3] = Rattus norvegicus, po, -4 h, 3 mpk oral gavage, -4h before LPS, read-out: Rat LPS Model % inhib @ dose @ predose time
[4] = Homo sapiens, U-937, TNF production
[5] = 3 mpk oral gavage, -4h before LPS
[6] = 3 mpk oral gavage, 4 h before LPS challenge
[7] = Rattus norvegicus, po, 5 mpk oral gavage, 4 h before LPS challenge

Molecule: 5-[2-(1,1-DIMETHYL)AMINOETHYL]-4-(4-PYRIDYL)-3-(4-FLUOROPHENYL)PYRAZOLE [Example C-114]
- Rat LPS Model % Inhibition @ dose @ predose time (TNF-α [1]; 5 mpk oral gavage, 4 h before LPS challenge): 39% @ 5 mpk @ −4h

Molecule: O=C(O)CCC(=O)N1CCN(c2n[nH]c(-c3ccc(Cl)cc3)c2-c2ccncc2)CC1 [A-321 (monosodium salt dihydrate), 4-[5-(4-chlorophenyl)-4-(4-pyridinyl)-1H-pyrazol-3-yl]-γ-oxo-1-piperazinebutanoic acid, monosodium salt dihydrate]
- inhibition in vivo at 3 mg/kg (TNF-α [1]; Rattus norvegicus, po, read-out: Rat LPS Assay % Inhibition): 14%

Molecule: Fc1ccc(-c2n[nH]cc2-c2ccnc(NCCN3CCC(N4CCCCC4)CC3)c2)cc1 [Example A-350, N-(2-[1,4′-bipiperidin]-1′-ylethyl)-4-[3-(4-fluorophenyl)-1H-pyrazol-4-yl]-2-pyridinamine]
- inhibition in vivo at 20 mg/kg (TNF-α [1]; Rattus norvegicus, po, Table 9, dose 20 mg/kg): 65%

Molecule: C[C@@H](NS(=O)(=O)Cc1ccccc1)c1[nH]nc(-c2ccc(F)cc2)c1-c1ccncc1 [Example B-0389]
- IC50 (human p38 kinase alpha): 10 nM
- inhibition in vivo at 3 mg/kg (TNF-α [1]; [3]): 62%
- IC50 (TNF-α [2]; [4]): 50 nM

Molecule: CCOC(=O)N[C@H](C)c1[nH]nc(-c2ccc(F)cc2)c1-c1ccncc1 [Example B-0426]
- IC50 (human p38 kinase alpha): 55 nM
- inhibition in vivo at 3 mg/kg (TNF-α [1]; [3]): 41%
- IC50 (TNF-α [2]; [4]): 740 nM

Molecule: C[C@@H](NS(=O)(=O)c1cccc(Br)c1)c1[nH]nc(-c2ccc(F)cc2)c1-c1ccncc1 [Example B-0455]
- inhibition in vivo at 3 mg/kg (TNF-α [1]; [3]): 36%
- inhibition at 1 µM (TNF-α [2]; Homo sapiens): 95%

Molecule: C[C@@H](NS(=O)(=O)c1ccc(F)c(Cl)c1)c1[nH]nc(-c2ccc(F)cc2)c1-c1ccncc1 [Example B-0466]
- inhibition in vivo at 3 mg/kg (TNF-α [1]; [3]): 0%
- inhibition at 1 µM (TNF-α [2]; Homo sapiens): 98%

Molecule: C[C@@H](NS(=O)(=O)c1ccc(C#N)cc1)c1[nH]nc(-c2ccc(F)cc2)c1-c1ccncc1 [Example B-0479]
- IC50 (human p38 kinase alpha): 31 nM
- inhibition in vivo at 3 mg/kg (TNF-α [1]; [3]): 15%
- inhibition at 1 µM (TNF-α [2]; Homo sapiens): 90%

Molecule: C[C@@H](NS(=O)(=O)c1ccc(-c2ccccc2)cc1)c1[nH]nc(-c2ccc(F)cc2)c1-c1ccncc1 [Example B-0481]
- IC50 (human p38 kinase alpha): 14 nM
- inhibition in vivo at 3 mg/kg (TNF-α [1]; [3]): 56%
- inhibition at 1 µM (TNF-α [2]; Homo sapiens): 95%

Molecule: C[C@@H](NS(=O)(=O)N(C)C)c1[nH]nc(-c2ccc(F)cc2)c1-c1ccncc1 [Example B-0487]
- inhibition in vivo at 3 mg/kg (TNF-α [1]; [3]): 54%

Molecule: C[C@@H](NC(=O)c1cccc(F)c1)c1[nH]nc(-c2ccc(F)cc2)c1-c1ccncc1 [Example B-0517]
- IC50 (human p38 kinase alpha): 94 nM
- inhibition at 1 µM (TNF-α [2]; Homo sapiens): 52%

Molecule: C[C@@H](NC(=O)c1c(Cl)cccc1Cl)c1[nH]nc(-c2ccc(F)cc2)c1-c1ccncc1 [Example B-0519]
- IC50 (human p38 kinase alpha): 43 nM
- inhibition at 1 µM (TNF-α [2]; Homo sapiens): 87%

Molecule: C[C@@H](NC(=O)c1cc(F)ccc1F)c1[nH]nc(-c2ccc(F)cc2)c1-c1ccncc1 [Example B-0520]
- IC50 (human p38 kinase alpha): 400 nM
- inhibition at 1 µM (TNF-α [2]; Homo sapiens): 67%

Molecule: C[C@@H](NC(=O)c1cc(F)c(F)cc1F)c1[nH]nc(-c2ccc(F)cc2)c1-c1ccncc1 [Example B-0521]
- IC50 (human p38 kinase alpha): 1370 nM
- inhibition at 1 µM (TNF-α [2]; Homo sapiens): 52%

Molecule: C[C@@H](NC(=O)c1ccccc1F)c1[nH]nc(-c2ccc(F)cc2)c1-c1ccncc1 [Example B-0522]
- IC50 (human p38 kinase alpha): 150 nM
- inhibition at 1 µM (TNF-α [2]; Homo sapiens): 75%

Molecule: C[C@@H](NC(=O)c1c(F)cccc1F)c1[nH]nc(-c2ccc(F)cc2)c1-c1ccncc1 [Example B-0523]
- IC50 (human p38 kinase alpha): 190 nM
- inhibition at 1 µM (TNF-α [2]; Homo sapiens): 83%

Molecule: C[C@@H](NC(=O)c1ccccc1Br)c1[nH]nc(-c2ccc(F)cc2)c1-c1ccncc1 [Example B-0526]
- IC50 (human p38 kinase alpha): 31 nM
- inhibition at 1 µM (TNF-α [2]; Homo sapiens): 87%

Molecule: C[C@@H](NC(=O)c1ccc(C(F)(F)F)cc1)c1[nH]nc(-c2ccc(F)cc2)c1-c1ccncc1 [Example B-0527]
- IC50 (human p38 kinase alpha): 1090 nM
- inhibition at 1 µM (TNF-α [2]; Homo sapiens): 63%

Molecule: C[C@@H](NC(=O)c1cccs1)c1[nH]nc(-c2ccc(F)cc2)c1-c1ccncc1 [Example B-0528]
- IC50 (human p38 kinase alpha): 140 nM
- inhibition at 1 µM (TNF-α [2]; Homo sapiens): 70%

Molecule: CC(NS(=O)(=O)c1ccc(F)cc1)c1[nH]nc(-c2ccc(F)cc2)c1-c1ccncc1 (centres unmarked) [Example B-0562]
- Rat LPS Model % inhib @ dose @ predose time (TNF-α [1]; [5]): 5% @ 3 mpk @ -4h

Molecule: CC(NS(=O)(=O)Cc1ccccc1)c1[nH]nc(-c2ccc(F)cc2)c1-c1ccncc1 (centres unmarked) [Example B-0566]
- Rat LPS Model % inhib @ dose @ predose time (TNF-α [1]; [5]): 0% @ 3 mpk @ -4h

Molecule: COc1ccc(S(=O)(=O)NC(C)c2[nH]nc(-c3ccc(F)cc3)c2-c2ccncc2)cc1 (centres unmarked) [Example B-0574]
- Rat LPS Model % inhib @ dose @ predose time (TNF-α [1]; [5]): 37% @ 3 mpk @ -4h

Molecule: Cc1ccc(S(=O)(=O)NC(C)c2[nH]nc(-c3ccc(F)cc3)c2-c2ccncc2)cc1 (centres unmarked) [Example B-0576]
- Rat LPS Model % inhib @ dose @ predose time (TNF-α [1]; [5]): 65% @ 3 mpk @ -4h

Molecule: CC(NC(=O)Cc1cccs1)c1[nH]nc(-c2ccc(F)cc2)c1-c1ccncc1 (centres unmarked) [Example B-0600]
- IC50 (human p38 kinase alpha): 2 nM
- U937 Cell % inhib @ conc. (TNF-α [2]): 28.0% @ 1.0 uM

Molecule: CC(NC(=O)C(C)(C)C)c1[nH]nc(-c2ccc(F)cc2)c1-c1ccncc1 (centres unmarked) [Example B-0601]
- Rat LPS Model % inhib @ dose @ predose time (TNF-α [1]; [5]): 43% @ 3 mpk %-4h

Molecule: CC(NS(=O)(=O)c1cccc(Cl)c1)c1[nH]nc(-c2ccc(F)cc2)c1-c1ccncc1 (centres unmarked) [Example B-0639]
- Rat LPS Model % inhib @ dose @ predose time (TNF-α [1]; [5]): 50% @ 3 mpk @ -4h

Molecule: CC(NS(=O)(=O)c1ccc(F)c(Cl)c1)c1[nH]nc(-c2ccc(F)cc2)c1-c1ccncc1 (centres unmarked) [Example B-0643]
- Rat LPS Model % inhib @ dose @ predose time (TNF-α [1]; [5]): 0% @ 3 mpk @ -4h

Molecule: CC(NS(=O)(=O)c1ccc(Cl)s1)c1[nH]nc(-c2ccc(F)cc2)c1-c1ccncc1 (centres unmarked) [Example B-0650]
- Rat LPS Model % inhib @ dose @ predose time (TNF-α [1]; [5]): 8% @ 3 mpk @ -4h

Molecule: CC(NS(=O)(=O)c1ccc(C#N)cc1)c1[nH]nc(-c2ccc(F)cc2)c1-c1ccncc1 (centres unmarked) [Example B-0656]
- Rat LPS Model % inhib @ dose @ predose time (TNF-α [1]; [5]): 28% @ 3 mpk @ -4h

Molecule: Cc1ccc(C(=O)NC(C)c2[nH]nc(-c3ccc(F)cc3)c2-c2ccncc2)cc1 (centres unmarked) [Example B-0671]
- IC50 (human p38 kinase alpha): 6380 nM
- U937 Cell % inhib @ conc. (TNF-α [2]): 36.0% @ 1.0 uM

Molecule: CC(NC(=O)c1cc(F)cc(C(F)(F)F)c1)c1[nH]nc(-c2ccc(F)cc2)c1-c1ccncc1 (centres unmarked) [Example B-0690]
- IC50 (human p38 kinase alpha): 27100 nM
- U937 Cell % inhib @ conc. (TNF-α [2]): 36.0% @ 1.0 uM

Molecule: CC(C)(C)C(=O)NC(Cc1ccccc1)c1[nH]nc(-c2ccc(F)cc2)c1-c1ccncc1 (centres unmarked) [Example B-0746]
- IC50 (human p38 kinase alpha): 10 nM
- U937 Cell % inhib @ conc. (TNF-α [2]): 22.0% @ 1.0 uM

Molecule: CCCS(=O)(=O)NC(Cc1ccccc1)c1[nH]nc(-c2ccc(F)cc2)c1-c1ccncc1 (centres unmarked) [Example B-0760]
- IC50 (human p38 kinase alpha): 10 nM
- U937 Cell % inhib @ conc. (TNF-α [2]): 13.0% @ 1.0 uM

Molecule: CC(C)(C)C(=O)NC(Cc1ccccc1)c1[nH]nc(-c2ccc(F)cc2)c1-c1ccncc1 (centres unmarked) [Example B-0791]
- IC50 (human p38 kinase alpha): 300 nM
- IC50 (TNF-α [2]; TNF production): > 1000 nM

Molecule: O=C(c1ccc(F)cc1)N1CCC(c2[nH]nc(-c3ccc(F)cc3)c2-c2ccncc2)CC1 [Example B-1360]
- Rat LPS Model % inhib @ dose @ predose time (TNF-α [1]; [6]): 54% @ 3 mpk @ -4h

Molecule: O=C(C1CC1)N1CCC(c2[nH]nc(-c3ccc(F)cc3)c2-c2ccncc2)CC1 [Example B-1364]
- Rat LPS Model % inhib @ dose @ predose time (TNF-α [1]; [6]): 17% @ 3 mpk @ -4h

Molecule: N[C@H]1CC[C@@H](c2[nH]nc(-c3cccc(Cl)c3)c2-c2ccncc2)CC1 [Example C-105, 5-cis-(4-AMINOCYCLOHEXYL)-4-(4-PYRIDYL)-3-(3-CHLOROPHENYL)PYRAZOLE]
- IC50 (human p38 kinase alpha): 33 nM
- inhibition in vivo at 5 mg/kg (TNF-α [1]; [7]): 46%

Molecule: CN(C)CC(=O)N1CCC(c2[nH]nc(-c3ccc(Cl)cc3)c2-c2ccncc2)CC1 [Example C-122]
- IC50 (human p38 kinase alpha): 25 nM
- inhibition in vivo at 5 mg/kg (TNF-α [1]; [7]): 55%

Molecule: CN1CCC(c2[nH]nc(-c3ccc(Cl)cc3)c2-c2ccncn2)CC1 [Example C-137]
- IC50 (human p38 kinase alpha): 51 nM
- inhibition in vivo at 5 mg/kg (TNF-α [1]; [7]): 58%

Molecule: O=C(CO)N1CCC(c2[nH]nc(-c3ccc(Cl)cc3)c2-c2ccncn2)CC1 [Example D-1, N-(2-Hydroxyacetyl)-5-(4-piperidyl)-4-(4-pyrimidyl)-3-(4-chlorophenyl)pyrazole]
- inhibition in vivo at 1 mg/kg (TNF-α [1]; Rattus norvegicus, po, 1.0 mg/kg oral gavage, 4 hours before LPS challenge, read-out: ratLPS/% Inh @1.0 (mg/kg)): 83%
